Data reported in US9481688B2, “(Thieno[2,3-b][1,5]benzoxazepin-4-yl)piperazin-1-yl compounds as dual activity H1 inverse agonists/5-HT2A antagonists” (Eli Lilly and Company, priority 2011, dated 2016).
Structures can show the parent of a compound that is named as a salt.

Key:
[1] = biological target: 5-HT6 (Homo sapiens (Human), UniProt P50406); assay: 5-HT6 binding
Text: (§1) Further, the compounds of the invention may be tested in binding assays and functional activity assays by well known methods for other physiologically important receptors such as, but not limited to, the hERG channel, other serotonin receptors (specifically 5-HT1B, 5-HT1D, receptors, lack of agonist activity at 5-HT2B receptors, 5-HT2C, 5-HT5, 5-HT6, and 5-HT7 receptors), dopaminergic receptors (specifically D1, D2, and D3), GABAA receptors, adrenergic receptors and monoamine transporters.

[2] = biological target: recombinant 5-HT2A receptor (human) (Homo sapiens (Human), UniProt P28223); assay: 5-HT2A competition binding assay ([3H]-Ketanserin, SPA); conditions: dihydrochloride
Experimental: [^3H]-Ketanserin binding experiments are carried out in SPA 96-well format. Membranes used in this assay are prepared from AV-12 cells stably expressing recombinant 5-HT2A receptor (human). The incubation is initiated by the addition of a mixture of WGA YSi SPA beads (1 mg/well, Perkin Elmer (MA, USA), RPNQ0011) and 2 μg membranes to assay buffer (67 mM Tris, 0.5 mM EDTA; pH 7.6) containing 3.1 nM [^3H]-Ketanserin and varying concentrations of the test compound (10 point concentration response curves). Non-specific binding is determined in the presence of 20 μM 1-(1-Naphthyl) piperazine. Samples are incubated for 4 hr. at room temperature (22° C.) and then read in a Microbeta Trilux.
Curves are evaluated using a 4-parameter logistic nonlinear equation to obtain the concentration of competitor causing 50% inhibition of radioligand binding (IC50). Equilibrium dissociation constants (Ki) are calculated according to the equation Ki=IC50/(1+L/Kd), where L equals the concentration of radioligand used in the experiment and Kd equals the equilibrium dissociation constant of the radioligand for the receptor, determined from standard saturation analysis or homologous competition experiments. Reported values for Ki, where n values are indicated, are shown as geometric mean±the standard error of the mean (SEM), with the number of replicate determinations indicated by n. […]

[3] = Plasma clearance in dog (intravenous); format: in vivo; conditions: male, Beagle, 1 mg/kg
Experimental: Male Beagle dogs (body weight range 10-12 kg) are obtained from Marshall Bioresources, USA. Test compound is administered intravenously in solution (1 mL/kg) in 20% Captisol® in 22.5 mM phosphate buffer, pH 2, at a final drug concentration of 1.0 mg/mL (free base equivalents). Blood samples are obtained from the jugular vein over 24 hr. Samples of plasma are obtained by centrifugation and stored frozen (−20° C.) prior to analysis.
(§2) Frozen plasma samples are thawed to room temperature for bioanalysis of concentrations of test compound. A related internal standard compound in acetonitrile/methanol (1:1, v/v) is added to all samples of plasma (1:1, v/v). The samples are centrifuged to remove precipitated protein prior to analysis. The supernatants are analysed by injection and rapid gradient elution on a Javelin Betasil C18 column (20×2.1 mm cartridge, Mobile phase A: Water/1 M NH4HCO3, 2000:10 v/v, Mobile Phase B: MeOH/1 M NH4HCO3, 2000:10 v/v). The eluted analytes are detected by LC-MS-MS analysis using a Sciex API 4000 triple quadrupole mass spectrometer. Concentrations of compound are determined from standards prepared and analysed under identical conditions. Clearance is calculated using non-compartmental analysis in Watson 7.4, Thermo Fisher Scientific, Inc.

[4] = biological target: Adrenergic alpha2B (Homo sapiens (Human), UniProt P18089); assay: Adrenergic alpha2B binding
Text: as §1

[5] = biological target: Dopamine D2 (Homo sapiens (Human), UniProt P14416); assay: Dopamine D2 binding; conditions: dihydrochloride
Text: as §1

[6] = Plasma clearance in rat (intravenous); format: in vivo; conditions: 1 mg/kg, dihydrochloride
Experimental: Male Sprague Dawley rats (body weight range 250-320 g) with indwelling femoral arterial cannulae are obtained from Charles River, Wilmington, Mass. 01887, USA. Test compound is administered intravenously in solution (1 mL/kg) in 20% Captisol® in 22.5 mM phosphate buffer, pH 2, at a final drug concentration of 1.0 mg/mL (free base equivalents). Blood samples are obtained using the indwelling cannula over 24 hr. Samples of plasma are obtained by centrifugation and stored frozen (−20° C.), or on dry ice, prior to analysis.
as §2

[7] = biological target: T1, 5-HT2B (Homo sapiens (Human), UniProt P41595); assay: 5-HT2B antagonist functional activity; format: biochemical
Text: as §1

[8] = biological target: T1, 5-HT2B; assay: 5-HT2B agonist functional activity; format: biochemical
Text: as §1

[9] = biological target: Adrenergic alpha1A (Homo sapiens (Human), UniProt P35348); assay: Adrenergic alpha1A binding
Text: as §1

[10] = biological target: Dopamine D1 (Homo sapiens (Human), UniProt P21728); assay: Dopamine D1 binding
Text: as §1

[11] = biological target: Dopamine D3 (Homo sapiens (Human), UniProt P35462); assay: Dopamine D3 binding; conditions: dihydrochloride
Text: as §1

[12] = biological target: 5-HT1D (Homo sapiens (Human), UniProt P28221); assay: 5-HT1D binding
Text: as §1

[13] = tested on: Wistar rats; assay: Sleep and behavioral monitoring in rats (EEG, EMG, motion); conditions: for Rebound Insomnia, Adj. Mean: NREM + REM sleep in 7th-9th hours post-treatment; for Rebound Insomnia, Adj. Mean / REM inhibition, Adj. Mean / Cumulative NREM sleep, Adj. Mean / Cumulative Total sleep, Adj. Mean / Locomotor Activity Intensity, Adj. Mean: difference from vehicle; for REM inhibition, Adj. Mean: REM sleep in first 12 hr. post-treatment; for Average Sleep Bout, Adj. Mean / Longest Sleep Bout, Adj. Mean / Cumulative NREM sleep, Adj. Mean / Cumulative Total sleep, Adj. Mean / Locomotor Activity Intensity, Adj. Mean: first 6 hr. post-treatment
[14] = rat, PO, 6 hr. after treatment, 4 parameter logistic regression

T1 sequence (P41595 whole entry, species assumed): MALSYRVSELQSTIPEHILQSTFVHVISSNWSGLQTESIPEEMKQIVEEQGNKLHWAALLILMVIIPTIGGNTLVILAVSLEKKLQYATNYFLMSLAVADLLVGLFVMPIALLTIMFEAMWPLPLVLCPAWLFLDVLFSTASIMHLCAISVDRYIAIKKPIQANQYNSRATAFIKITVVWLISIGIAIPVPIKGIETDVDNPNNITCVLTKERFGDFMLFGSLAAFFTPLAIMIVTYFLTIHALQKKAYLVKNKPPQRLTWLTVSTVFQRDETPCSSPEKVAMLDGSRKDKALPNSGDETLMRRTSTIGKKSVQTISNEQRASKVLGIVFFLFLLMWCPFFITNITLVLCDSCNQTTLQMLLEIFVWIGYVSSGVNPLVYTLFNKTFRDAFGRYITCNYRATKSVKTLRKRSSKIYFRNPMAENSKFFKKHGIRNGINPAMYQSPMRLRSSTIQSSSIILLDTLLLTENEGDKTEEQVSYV
5-HT1D, sequence (P28221 whole entry, species assumed): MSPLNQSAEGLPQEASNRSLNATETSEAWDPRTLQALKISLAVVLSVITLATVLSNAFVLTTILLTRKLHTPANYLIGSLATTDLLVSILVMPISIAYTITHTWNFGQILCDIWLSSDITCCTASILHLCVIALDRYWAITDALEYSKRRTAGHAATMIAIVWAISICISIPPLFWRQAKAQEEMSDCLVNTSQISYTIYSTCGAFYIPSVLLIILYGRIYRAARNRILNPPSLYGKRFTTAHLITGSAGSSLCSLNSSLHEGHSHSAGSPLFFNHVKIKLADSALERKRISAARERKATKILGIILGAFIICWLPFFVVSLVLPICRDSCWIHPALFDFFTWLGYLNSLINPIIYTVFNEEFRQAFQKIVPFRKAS
Adrenergic alpha2B, sequence (P18089 whole entry): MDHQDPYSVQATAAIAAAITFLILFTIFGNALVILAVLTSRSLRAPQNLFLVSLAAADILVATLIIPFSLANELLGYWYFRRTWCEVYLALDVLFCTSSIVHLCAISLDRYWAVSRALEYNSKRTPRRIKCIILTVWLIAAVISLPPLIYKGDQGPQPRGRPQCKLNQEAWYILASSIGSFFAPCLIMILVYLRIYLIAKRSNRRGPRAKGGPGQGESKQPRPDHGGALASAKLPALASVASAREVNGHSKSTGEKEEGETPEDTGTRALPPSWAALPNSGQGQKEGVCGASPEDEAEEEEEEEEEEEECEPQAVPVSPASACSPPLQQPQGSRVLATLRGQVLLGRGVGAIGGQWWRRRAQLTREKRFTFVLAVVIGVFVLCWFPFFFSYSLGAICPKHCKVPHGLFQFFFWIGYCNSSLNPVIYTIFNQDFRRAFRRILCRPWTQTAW
Dopamine D1, sequence (P21728 whole entry): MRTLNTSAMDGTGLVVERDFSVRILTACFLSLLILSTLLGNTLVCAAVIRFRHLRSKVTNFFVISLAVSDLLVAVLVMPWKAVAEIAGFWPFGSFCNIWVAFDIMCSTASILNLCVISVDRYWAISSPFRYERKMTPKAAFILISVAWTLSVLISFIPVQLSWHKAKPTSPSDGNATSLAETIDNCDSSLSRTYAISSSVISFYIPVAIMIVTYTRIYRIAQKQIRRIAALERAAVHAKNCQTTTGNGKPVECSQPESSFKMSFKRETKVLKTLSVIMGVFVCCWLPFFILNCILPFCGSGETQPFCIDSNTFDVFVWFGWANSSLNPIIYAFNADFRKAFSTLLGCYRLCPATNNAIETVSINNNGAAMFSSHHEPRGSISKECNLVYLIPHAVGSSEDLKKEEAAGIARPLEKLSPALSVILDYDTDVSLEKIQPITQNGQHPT
Dopamine D3, sequence (P35462 whole entry): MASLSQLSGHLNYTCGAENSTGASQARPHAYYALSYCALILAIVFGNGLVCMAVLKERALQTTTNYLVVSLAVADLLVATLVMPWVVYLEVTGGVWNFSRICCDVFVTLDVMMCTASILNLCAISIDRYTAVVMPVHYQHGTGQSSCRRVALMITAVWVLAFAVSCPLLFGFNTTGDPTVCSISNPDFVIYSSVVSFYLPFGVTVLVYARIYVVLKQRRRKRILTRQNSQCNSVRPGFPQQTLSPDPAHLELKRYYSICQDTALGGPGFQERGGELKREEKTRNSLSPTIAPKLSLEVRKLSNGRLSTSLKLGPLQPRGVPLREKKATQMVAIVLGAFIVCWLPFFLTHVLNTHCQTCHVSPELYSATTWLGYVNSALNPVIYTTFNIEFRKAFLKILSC
5-HT6, sequence (P50406 whole entry, species assumed): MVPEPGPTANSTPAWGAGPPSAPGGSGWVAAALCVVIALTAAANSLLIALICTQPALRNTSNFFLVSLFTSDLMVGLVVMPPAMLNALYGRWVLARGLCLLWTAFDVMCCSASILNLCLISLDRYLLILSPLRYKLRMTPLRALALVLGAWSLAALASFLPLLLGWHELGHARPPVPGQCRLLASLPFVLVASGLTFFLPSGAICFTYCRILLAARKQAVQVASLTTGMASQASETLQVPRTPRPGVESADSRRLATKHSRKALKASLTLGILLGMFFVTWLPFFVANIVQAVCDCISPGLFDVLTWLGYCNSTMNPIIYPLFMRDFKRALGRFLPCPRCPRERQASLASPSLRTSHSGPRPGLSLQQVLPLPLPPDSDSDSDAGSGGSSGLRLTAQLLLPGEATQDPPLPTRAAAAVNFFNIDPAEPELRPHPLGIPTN
Adrenergic alpha1A, sequence (P35348 whole entry): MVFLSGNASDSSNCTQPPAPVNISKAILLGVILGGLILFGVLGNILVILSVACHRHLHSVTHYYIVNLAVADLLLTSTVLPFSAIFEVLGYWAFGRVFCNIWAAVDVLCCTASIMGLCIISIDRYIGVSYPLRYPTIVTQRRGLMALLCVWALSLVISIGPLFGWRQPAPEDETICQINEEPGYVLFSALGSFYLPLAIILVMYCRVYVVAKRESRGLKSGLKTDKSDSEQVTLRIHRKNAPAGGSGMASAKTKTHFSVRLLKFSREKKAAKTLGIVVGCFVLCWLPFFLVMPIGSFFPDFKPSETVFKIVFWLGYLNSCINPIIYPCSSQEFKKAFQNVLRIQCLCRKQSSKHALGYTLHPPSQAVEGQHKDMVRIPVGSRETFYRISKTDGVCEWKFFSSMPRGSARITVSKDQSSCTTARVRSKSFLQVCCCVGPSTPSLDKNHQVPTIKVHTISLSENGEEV
Dopamine D2, sequence (P14416 whole entry): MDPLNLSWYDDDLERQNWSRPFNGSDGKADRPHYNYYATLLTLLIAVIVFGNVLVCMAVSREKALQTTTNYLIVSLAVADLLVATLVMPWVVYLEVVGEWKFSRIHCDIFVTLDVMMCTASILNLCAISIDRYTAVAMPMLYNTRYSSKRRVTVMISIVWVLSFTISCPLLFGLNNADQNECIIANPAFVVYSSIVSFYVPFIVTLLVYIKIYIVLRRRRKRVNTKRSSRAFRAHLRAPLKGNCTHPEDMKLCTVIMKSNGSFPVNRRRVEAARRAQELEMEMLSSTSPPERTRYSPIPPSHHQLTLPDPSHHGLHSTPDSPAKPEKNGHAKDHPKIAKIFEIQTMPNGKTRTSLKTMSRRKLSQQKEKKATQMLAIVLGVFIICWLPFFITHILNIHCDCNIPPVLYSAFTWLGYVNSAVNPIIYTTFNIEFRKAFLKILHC

Cc1ccc2c(c1)Oc1sc(Cl)cc1C(N1CCN(CC(C)(C)C(=O)O)CC1)=N2 [Example 3, 3-[4-(2-chloro-8-methyl-thieno[2,3-b][1,5]benzoxazepin-4-yl)piperazin-1-yl]-2,2-dimethyl-propanoic acid dihydrochloride]
Ki [1]: > 5.83 µM
Ki [2]: 7.01 nM
clearance [3]: 3.2 mL/min/kg
Ki [4]: > 5.76 µM
Ki [5]: > 4.57 µM
clearance [6]: 14.5 (+/−1.4, n = 3) mL/min./Kg
Kb [7]: 78.6 nM
EC50 [8]: > 10 µM
Ki [9]: > 10.2 µM
Ki [10]: 592 nM
Ki [11]: > 5.68 µM
Ki [12]: > 3.98 µM
Rebound Insomnia, Adj. Mean ([13]; 0.025 mg/kg PO): 1.4 min
REM inhibition, Adj. Mean ([13]; 0.025 mg/kg PO): 0.5 min
Average Sleep Bout, Adj. Mean ([13]; 0.025 mg/kg PO): 1.2 n-fold increase over vehicle controls
Longest Sleep Bout, Adj. Mean ([13]; 0.025 mg/kg PO): 1.1 n-fold increase over vehicle controls
Cumulative NREM sleep, Adj. Mean ([13]; 0.025 mg/kg PO): 6.5 min
Cumulative Total sleep, Adj. Mean ([13]; 0.025 mg/kg PO): 7.7 min
Locomotor Activity Intensity, Adj. Mean ([13]; 0.025 mg/kg PO): 0.2 LMA counts per minute of EEG-defined wakefulness
Rebound Insomnia, Adj. Mean ([13]; 0.035 mg/kg PO): 1.3 min
REM inhibition, Adj. Mean ([13]; 0.035 mg/kg PO): -1.8 min
Average Sleep Bout, Adj. Mean ([13]; 0.035 mg/kg PO): 1.3 n-fold increase over vehicle controls
Longest Sleep Bout, Adj. Mean ([13]; 0.035 mg/kg PO): 1.1 n-fold increase over vehicle controls
Cumulative NREM sleep, Adj. Mean ([13]; 0.035 mg/kg PO): 19.2 min
Cumulative Total sleep, Adj. Mean ([13]; 0.035 mg/kg PO): 18.9 min
Locomotor Activity Intensity, Adj. Mean ([13]; 0.035 mg/kg PO): 0.2 LMA counts per minute of EEG-defined wakefulness
Rebound Insomnia, Adj. Mean ([13]; 0.05 mg/kg PO): 0.2 min
REM inhibition, Adj. Mean ([13]; 0.05 mg/kg PO): 4.2 min
Average Sleep Bout, Adj. Mean ([13]; 0.05 mg/kg PO): 1.6 n-fold increase over vehicle controls
Longest Sleep Bout, Adj. Mean ([13]; 0.05 mg/kg PO): 1.4 n-fold increase over vehicle controls
Cumulative NREM sleep, Adj. Mean ([13]; 0.05 mg/kg PO): 23.4 min
Cumulative Total sleep, Adj. Mean ([13]; 0.05 mg/kg PO): 25.3 min
Locomotor Activity Intensity, Adj. Mean ([13]; 0.05 mg/kg PO): −0.3 LMA counts per minute of EEG-defined wakefulness
Rebound Insomnia, Adj. Mean ([13]; 0.1 mg/kg PO): -3.7 min
REM inhibition, Adj. Mean ([13]; 0.1 mg/kg PO): 4.9 min
Average Sleep Bout, Adj. Mean ([13]; 0.1 mg/kg PO): 1.7 n-fold increase over vehicle controls
Longest Sleep Bout, Adj. Mean ([13]; 0.1 mg/kg PO): 1.5 n-fold increase over vehicle controls
Cumulative NREM sleep, Adj. Mean ([13]; 0.1 mg/kg PO): 26.7 min
Cumulative Total sleep, Adj. Mean ([13]; 0.1 mg/kg PO): 28.7 min
Locomotor Activity Intensity, Adj. Mean ([13]; 0.1 mg/kg PO): 0.1 LMA counts per minute of EEG-defined wakefulness
Rebound Insomnia, Adj. Mean ([13]; 0.25 mg/kg PO): -2.2 min
REM inhibition, Adj. Mean ([13]; 0.25 mg/kg PO): 2.0 min
Average Sleep Bout, Adj. Mean ([13]; 0.25 mg/kg PO): 2.1 n-fold increase over vehicle controls
Longest Sleep Bout, Adj. Mean ([13]; 0.25 mg/kg PO): 2.0 n-fold increase over vehicle controls
Cumulative NREM sleep, Adj. Mean ([13]; 0.25 mg/kg PO): 37.9 min
Cumulative Total sleep, Adj. Mean ([13]; 0.25 mg/kg PO): 38.9 min
Locomotor Activity Intensity, Adj. Mean ([13]; 0.25 mg/kg PO): −0.7 LMA counts per minute of EEG-defined wakefulness
Rebound Insomnia, Adj. Mean ([13]; 0.5 mg/kg PO): -5.0 min
REM inhibition, Adj. Mean ([13]; 0.5 mg/kg PO): 0.4 min
Average Sleep Bout, Adj. Mean ([13]; 0.5 mg/kg PO): 1.8 n-fold increase over vehicle controls
Longest Sleep Bout, Adj. Mean ([13]; 0.5 mg/kg PO): 2.2 n-fold increase over vehicle controls
Cumulative NREM sleep, Adj. Mean ([13]; 0.5 mg/kg PO): 32.9 min
Cumulative Total sleep, Adj. Mean ([13]; 0.5 mg/kg PO): 30.9 min
Locomotor Activity Intensity, Adj. Mean ([13]; 0.5 mg/kg PO): 0.6 LMA counts per minute of EEG-defined wakefulness
Rebound Insomnia, Adj. Mean ([13]; 1 mg/kg PO): 1.6 min
REM inhibition, Adj. Mean ([13]; 1 mg/kg PO): -0.1 min
Average Sleep Bout, Adj. Mean ([13]; 1 mg/kg PO): 1.7 n-fold increase over vehicle controls
Longest Sleep Bout, Adj. Mean ([13]; 1 mg/kg PO): 2.0 n-fold increase over vehicle controls
Cumulative NREM sleep, Adj. Mean ([13]; 1 mg/kg PO): 34.0 min
Cumulative Total sleep, Adj. Mean ([13]; 1 mg/kg PO): 33.6 min
Locomotor Activity Intensity, Adj. Mean ([13]; 1 mg/kg PO): −1.6 LMA counts per minute of EEG-defined wakefulness
Rebound Insomnia, Adj. Mean ([13]; 3 mg/kg PO): 0.3 min
REM inhibition, Adj. Mean ([13]; 3 mg/kg PO): -4.6 min
Average Sleep Bout, Adj. Mean ([13]; 3 mg/kg PO): 2.0 n-fold increase over vehicle controls
Longest Sleep Bout, Adj. Mean ([13]; 3 mg/kg PO): 2.7 n-fold increase over vehicle controls
Cumulative NREM sleep, Adj. Mean ([13]; 3 mg/kg PO): 31.7 min
Cumulative Total sleep, Adj. Mean ([13]; 3 mg/kg PO): 29.7 min
Locomotor Activity Intensity, Adj. Mean ([13]; 3 mg/kg PO): −3.1 LMA counts per minute of EEG-defined wakefulness
Rebound Insomnia, Adj. Mean ([13]; 10 mg/kg PO): -3.1 min
REM inhibition, Adj. Mean ([13]; 10 mg/kg PO): -9.4 min
Average Sleep Bout, Adj. Mean ([13]; 10 mg/kg PO): 2.0 n-fold increase over vehicle controls
Longest Sleep Bout, Adj. Mean ([13]; 10 mg/kg PO): 2.3 n-fold increase over vehicle controls
Cumulative NREM sleep, Adj. Mean ([13]; 10 mg/kg PO): 29.1 min
Cumulative Total sleep, Adj. Mean ([13]; 10 mg/kg PO): 26.5 min
Locomotor Activity Intensity, Adj. Mean ([13]; 10 mg/kg PO): −1.9 LMA counts per minute of EEG-defined wakefulness
change in awake time following treatment (dose response curve, FIG. 2) ([13]; rat): does not result in rebound insomnia
change in cumulative REM sleep time (dose response curve, FIG. 1) ([13]; rat): does not inhibit REM sleep
change in distances moved during periods of wakefulness (dose response curve, FIG. 3) ([13]; rat): does not inhibit or stimulate normal activity
Estimated efficacy dose, NREM accumulation = 30 min. [13, 14]: 0.09 mg/kg
Estimated efficacy dose, average sleep bout (1.5-fold increase) [13, 14]: 0.04 mg/kg
Estimated efficacy dose, longest sleep bout (1.75-fold increase) [13, 14]: 0.12 mg/kg
Estimated efficacy dose, total sleep accumulation = 25 min. [13, 14]: 0.05 mg/kg
REM sleep inhibition ([13]; rat, at 3 mg/kg): without significant
cumulative NREM sleep time ([13]; rat, at 3 mg/kg): significantly increase
cumulative total sleep time ([13]; rat, at 3 mg/kg): significantly increase
inhibition of locomotor intensity (LMI) ([13]; rat, at 3 mg/kg): without significant
rebound insomnia ([13]; rat, at 3 mg/kg): without significant rebound insomnia
NREM sleep ([13]; rat, coadministered with citalopram): significantly increase NREM sleep at significantly lower doses
